The values below come from patent publication US20120034193A1, “TREATMENT OF NEUROTROPHIC FACTOR MEDIATED DISORDERS” (priority 2009, published 2012).

Data set [1] addresses Nicotinic Acetylcholine α1, Bungarotoxin (Homo sapiens, UniProt P02708+P07510+Q07001). Description: Binding assay. Conditions: smilagenin 1 μM.
For data set [2], the system named is dopamine transporter (DAT). The data set is described as follows: Striatal DAT level in control and MPTP mice, 61 or 71 days of dosing. The class given is in vivo, C57 mice. The conditions noted are these: 10 mg/kg/day oral. As to the method:
In a similar experiment, 10-week old male C57 mice received daily injections of saline or MPTP (25 mg/kg/day, i.p.) for 5 consecutive days (days 1-5) and oral administration of smilagenin (10 mg/kg/day) or vehicle (HPMC 0.5% w/v containing tween-80 0.2% v/v) for 61 days (days […]) or 71 days (days 2-72) after which time their brains were removed for quantification of striatal levels of DAT, marker of the extent of neuronal damage to dopaminergic neurones

The next data set has as its system Transporter, Monoamine. Description: Binding assay. Set-up: species or system Rabbit. Conditions: smilagenin 1 μM. The procedure: (§1) The receptor binding was investigated using the following method: Sarsasapogenin was incubated with tissue or cell homogenate that expressed the receptor of interest and a known concentration a radiolabelled compound with affinity for the receptor of interest. After the incubation period the non-bound radiolabelled compound was removed and the amount of specific binding was quantified. The amount of specific binding in the presence and absence of sarsasapogenin were compared and the percent inhibition of the binding of the radiolabelled compound by sarsasapogenin was calculated. The source of the receptor, the incubation conditions, the radiolabelled compound used varied depending on each specific assay.
(§2) Using the same methods as described above, the binding of smilagenin (1 μM) to the receptors listed in Table 2 below, and the effect of smilagenin on the activity of the enzymes listed in Table 2 below, were investigated.

Data set [3] in a line: Long term oral toxicity study, mice. The class given is in vivo. Conditions: high doses, up to 52 weeks in mice.
For a further data set, the system named is MPTP-lesioned macaques. The data set is described as follows: Parkinsonian disability in MPTP-lesioned macaques. Format: in vivo, Macaca fascicularis. As to the method: (§3) Nineteen female cynomolgus monkeys (Macaca fascicularis, 3.0-4.5 kg, 4-6 years old) were acclimatised to the experimental setting and procedures for 3 months and baseline behaviour was assessed in all animals. Fourteen female macaques received MPTP (0.2 mg/kg/day, s.c.) until marked, stable, parkinsonian symptoms developed. Animals (n=7/group) were randomly assigned to two groups; smilagenin (20 mg/kg/day, p.o.) or vehicle control (HPMC, 0.5% w/v containing Tween 80, 0.2% v/v).
(§4) Assessments of parkinsonian disability were made after MPTP administration and following 18 weeks of smilagenin or vehicle administration. Parkinsonian disability was evaluated by post hoc analysis of DVD-recordings by a neurologist blinded to the treatment. At the end of the study the brains were removed and the levels of unbound GDNF and BDNF in the putamen were measured using Multiplex ELISA/Aushon assays. The MPTP treated macaques used in this experiment thus provide an accepted model for Parkinson's disease and similar motor-sensory neurodegenerative conditions.

Data set [4] deals with Protein Serine/Threonine Kinase, MAPK3 (ERK1) (Homo sapiens, UniProt P27361). Description: Functional assay. Format: biochemical. The conditions noted are these: smilagenin 1 μM. As to the method: (§5) The enzyme activity modulation was investigated using the following method: Sarsasapogenin was incubated with each enzyme plus a specific substrate for each enzyme. After the incubation period the reaction was stopped and the reduction of the specific substrate or the increase in a specific product in the absence and presence of sarsasapogenin was measured and the percent inhibition of the reaction in the presence of sarsasapogenin was calculated. The amount of enzyme used, the incubation conditions, the substrate used and the method of quantification varied depending on each specific assay.
Sequence of Protein Serine/Threonine Kinase, MAPK3 (ERK1) (P27361 whole entry): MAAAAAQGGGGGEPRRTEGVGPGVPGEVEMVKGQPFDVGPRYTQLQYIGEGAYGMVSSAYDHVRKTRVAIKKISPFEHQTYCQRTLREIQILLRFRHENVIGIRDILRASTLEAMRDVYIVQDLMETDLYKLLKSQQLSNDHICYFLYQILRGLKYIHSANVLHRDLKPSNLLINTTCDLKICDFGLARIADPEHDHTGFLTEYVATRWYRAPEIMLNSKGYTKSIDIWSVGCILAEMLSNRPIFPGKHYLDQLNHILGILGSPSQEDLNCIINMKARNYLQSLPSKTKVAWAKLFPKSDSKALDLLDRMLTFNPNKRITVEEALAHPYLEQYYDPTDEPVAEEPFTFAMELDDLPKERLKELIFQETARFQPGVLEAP
as §2

Data set [5] concerns the target Protein Serine/Threonine Kinase, MAPK11 (p38β) (Homo sapiens, UniProt Q15759). Description: Functional assay. The class given is biochemical. The conditions noted are these: smilagenin 1 μM. As to the method: as §5, §2
Data set [6] concerns the target Protein Serine/Threonine Kinase, MAPK12 (p38γ) (Homo sapiens, UniProt P53778). The data set is described as follows: Functional assay. Format: biochemical. The conditions noted are these: smilagenin 1 μM. The procedure:
as §5, §2

Data set [7] deals with Protein Tyrosine Kinase, NTRK2 (trkB) (Homo sapiens, UniProt Q16620). The data set is described as follows: Functional assay. The conditions noted are these: smilagenin 1 μM. The class given is biochemical. As to the method: as §5, §2
Sequence of Protein Tyrosine Kinase, NTRK2 (trkB) (Q16620 32-822): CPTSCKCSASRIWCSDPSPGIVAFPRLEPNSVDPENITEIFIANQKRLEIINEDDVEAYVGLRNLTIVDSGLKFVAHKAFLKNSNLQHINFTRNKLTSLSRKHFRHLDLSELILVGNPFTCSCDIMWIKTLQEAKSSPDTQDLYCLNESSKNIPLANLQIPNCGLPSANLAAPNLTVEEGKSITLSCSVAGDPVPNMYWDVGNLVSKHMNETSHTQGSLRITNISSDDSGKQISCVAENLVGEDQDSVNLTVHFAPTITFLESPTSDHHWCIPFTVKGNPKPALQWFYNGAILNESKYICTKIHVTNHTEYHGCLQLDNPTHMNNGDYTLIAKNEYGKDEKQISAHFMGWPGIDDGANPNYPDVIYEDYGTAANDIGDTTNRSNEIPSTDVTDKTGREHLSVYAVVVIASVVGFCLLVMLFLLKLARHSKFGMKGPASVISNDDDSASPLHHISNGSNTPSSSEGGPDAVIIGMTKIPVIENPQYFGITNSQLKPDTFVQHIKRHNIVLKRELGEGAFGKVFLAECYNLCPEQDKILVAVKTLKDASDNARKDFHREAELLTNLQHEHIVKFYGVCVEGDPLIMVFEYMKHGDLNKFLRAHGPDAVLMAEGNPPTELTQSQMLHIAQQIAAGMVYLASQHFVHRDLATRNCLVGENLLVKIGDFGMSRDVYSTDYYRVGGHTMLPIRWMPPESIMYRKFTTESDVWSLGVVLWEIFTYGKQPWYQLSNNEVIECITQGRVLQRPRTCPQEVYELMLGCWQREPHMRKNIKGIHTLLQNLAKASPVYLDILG
For data set [8], the target named is Protein Serine/Threonine Kinase, MAPK8 (JNK1) (Homo sapiens, UniProt P45983). The data set is described as follows: Functional assay. Format: biochemical. The conditions noted are these: smilagenin 1 μM. As to the method: as §5, §2
Sequence of Protein Serine/Threonine Kinase, MAPK8 (JNK1) (P45983 whole entry): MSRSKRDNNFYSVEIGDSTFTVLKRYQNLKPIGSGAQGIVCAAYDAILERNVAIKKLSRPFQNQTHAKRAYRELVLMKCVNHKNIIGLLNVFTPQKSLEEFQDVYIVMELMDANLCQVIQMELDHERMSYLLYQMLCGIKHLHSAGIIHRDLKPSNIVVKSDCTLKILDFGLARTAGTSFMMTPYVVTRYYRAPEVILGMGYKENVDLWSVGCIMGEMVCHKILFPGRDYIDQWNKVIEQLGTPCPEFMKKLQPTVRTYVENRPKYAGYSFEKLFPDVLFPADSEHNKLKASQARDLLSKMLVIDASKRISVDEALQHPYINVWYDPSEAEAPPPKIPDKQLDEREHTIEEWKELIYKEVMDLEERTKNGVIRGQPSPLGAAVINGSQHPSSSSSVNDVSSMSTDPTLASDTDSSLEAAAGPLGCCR
The subject of the next data set is BDNF. The data set is described as follows: Unbound BDNF in the putamen of MPTP-lesioned macaques. Conditions: smilagenin 20 mg/kg/day p.o., 18 weeks; control 257.58, MPTP 388.73. The class given is in vivo, Macaca fascicularis. As to the method:
as §3, §4

For data set [9], the target named is Nicotinic Acetylcholine α7, Bungarotoxin (Rattus norvegicus, UniProt Q05941). The data set is described as follows: Binding assay. The conditions noted are these: smilagenin 1 μM.
Data set [10] concerns Vascular Endothelial Growth Factor (VEGF). The data set is described as follows: Binding assay. Conditions: smilagenin 1 μM. Set-up: species or system Human. The procedure:
as §1, §2

A further data set relates to Nicotinic Acetylcholine. The data set is described as follows: Binding assay. Set-up: species or system Human. Conditions: smilagenin 1 μM. As to the method:
as §1, §2

Data set [11] concerns Rat dopaminergic neurones. Description: TH positive neurones and neurite outgrowth after MPP+ exposure. The class given is cell-based. The conditions noted are these: 10 μM from day 6, MPP+ 2 μM day 8 for 48 h. The procedure: Rat dopaminergic neurones were prepared using a slightly modified previously described method (Brouard et al., Journal of Neuroscience, 1992, 12, pp. 1409-1415). On day 6 the culture medium was replaced with fresh medium or fresh medium containing smilagenin (10 μM) or vehicle (DMSO, 0.25%). On day 8, MPP^+ (2 μM) or vehicle (saline) was added and 48 h later dopaminergic neurones were stained and the concentration of GDNF in the culture medium, neuronal damage and neurite outgrowth were assessed.

A further data set relates to BDNF mRNA. The data set is described as follows: BDNF mRNA expression in rat cortical neurones after 48 h incubation (rt RT-PCR). The class given is cell-based. Conditions: 10 μM, mean ± s.e.mean, n = 3. The procedure: In a separate experiment, rat cortical neurones were cultured by modification of a method previously described (Eckenstein and Sofroniew, Journal of Neuroscience, 1983, 3, pp. 2286-2291). On day 8, the culture medium was changed to a medium containing vehicle (DMSO, 0.5%) or smilagenin (10 μM) for 48 h and the level of BDNF mRNA in the cortical neurones was assessed by rt RT-PCR.

Another data set relates to Transporter, Adenosine. The data set is described as follows: Binding assay. Set-up: species or system Guinea pig. The conditions noted are these: smilagenin 1 μM. The procedure:
as §1, §2

The target of data set [12] is 5-Hydroxytryptamine, 5-HT4 (Cavia porcellus, UniProt O70528). The data set is described as follows: Binding assay. Set-up: species or system Guinea pig. Conditions: smilagenin 1 μM. As to the method:
as §1, §2

In data set [13] the test system is Atrial Natriuretic Factor. Description: Binding assay. The conditions noted are these: smilagenin 1 μM. Set-up: species or system Guinea pig. The procedure:
as §1, §2

Each structure is given as a SMILES string. Marks after values point to notes of the source that are not given here.

Sequence of Protein Serine/Threonine Kinase, MAPK12 (p38γ) (P53778 whole entry): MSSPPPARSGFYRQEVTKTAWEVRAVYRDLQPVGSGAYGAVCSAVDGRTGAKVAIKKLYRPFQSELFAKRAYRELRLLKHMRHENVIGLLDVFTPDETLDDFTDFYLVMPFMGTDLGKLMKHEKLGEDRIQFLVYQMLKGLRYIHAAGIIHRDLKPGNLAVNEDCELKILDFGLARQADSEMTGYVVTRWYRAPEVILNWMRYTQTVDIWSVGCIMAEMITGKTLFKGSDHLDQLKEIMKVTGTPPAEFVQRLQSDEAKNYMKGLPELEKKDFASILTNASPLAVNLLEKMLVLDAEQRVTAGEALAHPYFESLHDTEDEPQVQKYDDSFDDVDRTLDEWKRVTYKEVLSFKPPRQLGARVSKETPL
Sequence of 5-Hydroxytryptamine, 5-HT4 (O70528 whole entry): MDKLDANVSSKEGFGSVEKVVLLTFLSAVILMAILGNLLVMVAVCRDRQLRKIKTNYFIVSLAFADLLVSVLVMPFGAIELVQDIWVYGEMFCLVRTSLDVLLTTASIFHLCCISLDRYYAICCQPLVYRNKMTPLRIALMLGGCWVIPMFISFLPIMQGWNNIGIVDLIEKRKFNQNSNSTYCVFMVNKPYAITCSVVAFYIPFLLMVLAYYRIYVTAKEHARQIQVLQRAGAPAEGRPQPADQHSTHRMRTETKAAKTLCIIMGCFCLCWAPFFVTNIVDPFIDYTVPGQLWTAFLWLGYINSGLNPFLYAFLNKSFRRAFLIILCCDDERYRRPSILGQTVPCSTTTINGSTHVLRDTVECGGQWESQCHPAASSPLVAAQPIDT
Sequence of Nicotinic Acetylcholine α1, Bungarotoxin (P07510 23-517): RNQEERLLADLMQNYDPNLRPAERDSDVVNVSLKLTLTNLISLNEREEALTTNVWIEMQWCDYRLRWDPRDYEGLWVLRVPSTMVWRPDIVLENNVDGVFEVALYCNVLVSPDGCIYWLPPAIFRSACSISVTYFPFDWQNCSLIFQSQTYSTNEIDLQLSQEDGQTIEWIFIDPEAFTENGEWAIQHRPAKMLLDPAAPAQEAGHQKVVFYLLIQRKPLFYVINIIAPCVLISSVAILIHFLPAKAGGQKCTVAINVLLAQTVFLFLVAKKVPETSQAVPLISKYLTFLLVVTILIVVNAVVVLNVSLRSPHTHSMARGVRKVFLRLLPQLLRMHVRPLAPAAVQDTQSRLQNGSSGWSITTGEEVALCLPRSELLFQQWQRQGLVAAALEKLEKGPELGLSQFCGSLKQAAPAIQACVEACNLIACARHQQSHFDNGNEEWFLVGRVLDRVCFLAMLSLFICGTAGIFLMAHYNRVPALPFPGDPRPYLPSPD
Sequence of Nicotinic Acetylcholine α1, Bungarotoxin (P11230 24-501, further chain): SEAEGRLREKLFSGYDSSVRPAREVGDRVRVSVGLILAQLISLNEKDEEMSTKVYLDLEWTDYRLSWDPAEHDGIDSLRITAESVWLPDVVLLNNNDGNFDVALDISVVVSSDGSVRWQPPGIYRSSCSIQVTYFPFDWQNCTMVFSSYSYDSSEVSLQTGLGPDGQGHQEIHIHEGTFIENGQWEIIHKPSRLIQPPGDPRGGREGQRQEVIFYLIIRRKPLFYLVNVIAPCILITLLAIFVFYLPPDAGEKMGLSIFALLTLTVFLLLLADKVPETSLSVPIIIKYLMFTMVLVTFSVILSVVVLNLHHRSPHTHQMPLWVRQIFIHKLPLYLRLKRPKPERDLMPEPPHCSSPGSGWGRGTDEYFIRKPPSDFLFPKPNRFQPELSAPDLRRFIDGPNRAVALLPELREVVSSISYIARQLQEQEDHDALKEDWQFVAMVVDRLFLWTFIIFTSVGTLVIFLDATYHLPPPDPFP
Sequence of Nicotinic Acetylcholine α1, Bungarotoxin (Q07001 22-517): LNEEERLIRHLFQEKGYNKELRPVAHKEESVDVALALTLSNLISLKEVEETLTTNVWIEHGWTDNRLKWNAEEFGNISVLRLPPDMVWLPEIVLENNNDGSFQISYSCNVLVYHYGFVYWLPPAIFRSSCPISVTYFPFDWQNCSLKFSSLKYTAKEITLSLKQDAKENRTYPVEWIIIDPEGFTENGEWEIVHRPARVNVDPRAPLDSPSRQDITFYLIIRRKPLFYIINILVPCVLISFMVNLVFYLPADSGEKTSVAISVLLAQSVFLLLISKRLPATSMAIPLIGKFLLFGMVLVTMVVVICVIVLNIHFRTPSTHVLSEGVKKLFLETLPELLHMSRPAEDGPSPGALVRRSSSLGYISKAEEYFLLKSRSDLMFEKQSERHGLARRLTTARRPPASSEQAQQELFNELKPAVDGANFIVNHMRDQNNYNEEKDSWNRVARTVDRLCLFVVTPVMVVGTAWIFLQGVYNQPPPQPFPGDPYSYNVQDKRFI
Sequence of Nicotinic Acetylcholine α1, Bungarotoxin (P02708 21-457): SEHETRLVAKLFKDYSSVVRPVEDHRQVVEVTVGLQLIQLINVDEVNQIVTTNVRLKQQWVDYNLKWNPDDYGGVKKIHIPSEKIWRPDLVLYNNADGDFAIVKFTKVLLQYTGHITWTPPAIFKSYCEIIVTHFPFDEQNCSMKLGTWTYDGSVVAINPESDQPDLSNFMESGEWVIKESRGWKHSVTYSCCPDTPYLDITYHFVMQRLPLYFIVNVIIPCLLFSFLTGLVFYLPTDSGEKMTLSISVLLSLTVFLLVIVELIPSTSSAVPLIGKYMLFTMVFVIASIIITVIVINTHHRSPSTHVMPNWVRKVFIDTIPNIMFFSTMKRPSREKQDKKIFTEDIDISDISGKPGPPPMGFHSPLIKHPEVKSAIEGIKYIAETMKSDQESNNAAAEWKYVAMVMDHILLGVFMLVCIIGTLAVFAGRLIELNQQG
Sequence of Protein Serine/Threonine Kinase, MAPK11 (p38β) (Q15759 whole entry): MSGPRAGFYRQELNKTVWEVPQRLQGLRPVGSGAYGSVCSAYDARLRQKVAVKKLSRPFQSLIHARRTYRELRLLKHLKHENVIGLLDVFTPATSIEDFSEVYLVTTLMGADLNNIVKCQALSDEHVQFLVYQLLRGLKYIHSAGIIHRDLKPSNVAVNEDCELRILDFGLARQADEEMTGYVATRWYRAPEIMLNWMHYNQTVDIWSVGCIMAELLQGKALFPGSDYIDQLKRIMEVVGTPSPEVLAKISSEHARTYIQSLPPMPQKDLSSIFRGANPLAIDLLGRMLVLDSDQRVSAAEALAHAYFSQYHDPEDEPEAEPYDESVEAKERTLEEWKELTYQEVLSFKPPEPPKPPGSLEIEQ

`C[C@@H]1CC[C@@]2(OC1)O[C@H]1C[C@H]3[C@@H]4CC[C@@H]5C[C@@H](O)CC[C@]5(C)[C@H]4CC[C@]3(C)[C@H]1[C@@H]2C` [Smilagenin, smilagenin]: the “Effect (%)” value is recorded as “NS (NS = No significant response. Significance was taken as ≧30% stimulation or inhibition)” in [1]; “NS (NS = No significant response. Significance was taken as ≧30% stimulation or inhibition)” in the data set on Transporter, Monoamine; “NS (NS = No significant response. Significance was taken as ≧30% stimulation or inhibition)” in [4]; “NS (NS = No significant response. Significance was taken as ≧30% stimulation or inhibition)” in data set [5]; “NS (NS = No significant response. Significance was taken as ≧30% stimulation or inhibition)” in data set [6]; “NS (NS = No significant response. Significance was taken as ≧30% stimulation or inhibition)” in data set [7]. Also, the “Effect (%)” value is “NS (NS = No significant response. Significance was taken as ≧30% stimulation or inhibition)” in data set [8]; “NS (NS = No significant response. Significance was taken as ≧30% stimulation or inhibition)” in [9]; “NS (NS = No significant response. Significance was taken as ≧30% stimulation or inhibition)” in data set [10]; “NS (NS = No significant response. Significance was taken as ≧30% stimulation or inhibition)” in the data set with Nicotinic Acetylcholine; “NS (NS = No significant response. Significance was taken as ≧30% stimulation or inhibition)” in the data set with Transporter, Adenosine; “NS (NS = No significant response. Significance was taken as ≧30% stimulation or inhibition)” in [12]. Further, the “Effect (%)” value in [13] is “NS (NS = No significant response. Significance was taken as ≧30% stimulation or inhibition)”. The “DAT level ([I^125]-RTI binding in the striatum; nCi/g protein)” value was 256.2 ± 21.4^++++ nCi/g protein in data set [2] (MPTP mice, days 2-72); 280.3 ± 18.3^++++ nCi/g protein in data set [2] (MPTP mice, days 12-72); 406.2 ± 21.8 nCi/g protein in data set [2] (control mice (no MPTP), days 2-72). In data set [3], the Long term toxicity result is given as “without showing any signs of toxicity or adverse events”. Further, the “Median parkinsonian disability post-MPTP administration” value in the data set on MPTP-lesioned macaques (baseline of the smilagenin group, before dosing) is listed as 47.17. Also, the “Median parkinsonian disability at week 18” value in the data set on MPTP-lesioned macaques (smilagenin 20 mg/kg/day p.o., 18 weeks, MPTP vehicle group 41.67) was 27.00^###. The “Mean ± s.e.mean of unbound BDNF level in the putamen (pg/mg protein)” value in the data set on BDNF was determined as 208.27 ± 36.58 pg/mg protein. Moreover, the “Neurite outgrowth (% of control)” value in data set [11] was 62.1 ± 7.0 % of control. Further, the “Number of TH positive neurones per field (% of control)” value in data set [11] was 57.1 ± 5.2 % of control. For the same compound, in the data set on BDNF mRNA, the “Relative amount of BDNF mRNA (% of control)” value is 103.9 ± 6.5 % of control.
